Biological target: T1, A-Raf (Homo sapiens, UniProt P10398)
T1 sequence (P10398 1-606): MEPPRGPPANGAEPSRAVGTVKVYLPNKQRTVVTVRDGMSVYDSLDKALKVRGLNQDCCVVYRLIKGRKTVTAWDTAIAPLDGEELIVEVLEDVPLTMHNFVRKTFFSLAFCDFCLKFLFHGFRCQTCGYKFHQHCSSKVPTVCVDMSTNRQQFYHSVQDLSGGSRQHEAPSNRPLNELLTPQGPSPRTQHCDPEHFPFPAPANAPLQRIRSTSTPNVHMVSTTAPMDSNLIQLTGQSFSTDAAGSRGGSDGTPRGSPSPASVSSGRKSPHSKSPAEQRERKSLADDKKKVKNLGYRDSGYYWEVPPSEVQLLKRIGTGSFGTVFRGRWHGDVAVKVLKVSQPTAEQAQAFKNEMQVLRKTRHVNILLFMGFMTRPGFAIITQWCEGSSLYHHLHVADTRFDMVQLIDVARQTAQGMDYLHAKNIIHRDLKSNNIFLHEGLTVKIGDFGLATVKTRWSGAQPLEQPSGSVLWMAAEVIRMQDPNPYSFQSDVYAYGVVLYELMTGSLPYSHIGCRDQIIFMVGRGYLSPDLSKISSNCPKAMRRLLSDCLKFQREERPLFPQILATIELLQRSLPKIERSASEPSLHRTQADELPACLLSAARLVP
Experiment: A-Raf biochemical kinase inhibition (AlphaScreen, biotin-MEK1 substrate)
Conditions: 100 μM ATP
Protocol: Compounds to be tested are diluted in dimethyl sulfoxide to a concentration of 0.1 mM. These are serially diluted 15 μL into 30 μL of dimethyl sulfoxide seven times in 96 well plates for a total of 8 dilution points, and for each dilution point 1 μL is added to a well of an assay plate. […] The reaction is started with addition of 10 μL of 200 μM ATP (i.e. final 100 μM ATP). […] The plates are incubated for 3 hours at room temperature and read on Envision reader (Perkin Elmer). […] The signal vs. compound concentration is used to determine the IC50.

| SMILES | IC50 |
| --- | --- |
| N#Cc1ccnc2[nH]cc(C(=O)c3c(F)ccc(NS(=O)(=O)c4cccnc4)c3F)c12 [P-2077, Pyridine-3-sulfonic acid [3-(4-cyano-1H-pyrrolo[2,3-b]pyridine-3-carbonyl)-2,4-difluoro-phenyl]-amide] | < 0.01 µM |
| CCCS(=O)(=O)Nc1ccc(F)c(C(=O)c2c[nH]c3ncc(-c4ccc(OCCCN5CCOCC5)nc4)cc23)c1F [P-2236, Propane-1-sulfonic acid (2,4-difluoro-3-{5-[6-(3-morpholin-4-yl-propoxy)-pyridin-3-yl]-1H-pyrrolo[2,3-b]pyridine-3-carbonyl}-phenyl)-amide] | < 0.01 µM |
| CCCS(=O)(=O)Nc1cccc(C(=O)c2c[nH]c3ncc(-c4cnc(OC)nc4)cc23)c1F [P-2407, Propane-1-sulfonic acid {2-fluoro-3-[5-(2-methoxy-pyrimidin-5-yl)-1H-pyrrolo[2,3-b]pyridine-3-carbonyl]-phenyl}-amide] | < 0.01 µM |
| N#Cc1ccnc2[nH]cc(C(=O)c3c(F)ccc(NS(=O)(=O)c4c(F)cccc4F)c3F)c12 [P-2037, N-[3-(4-Cyano-1H-pyrrolo[2,3-b]pyridine-3-carbonyl)-2,4-difluoro-phenyl]-2,6-difluoro-benzenesulfonamide] | < 0.01 µM |
| CCCS(=O)(=O)Nc1ccc(F)c(C(=O)c2c[nH]c3ncc(-c4ccc(N5CCCC5)nc4)cc23)c1F [P-2231, Propane-1-sulfonic acid {2,4-difluoro-3-[5-(6-pyrrolidin-1-yl-pyridin-3-yl)-1H-pyrrolo[2,3-b]pyridine-3-carbonyl]-phenyl}-amide] | < 0.01 µM |
| CCCS(=O)(=O)Nc1ccc(F)c(C(=O)c2c[nH]c3ncc(-c4ccc(NS(C)(=O)=O)cc4)cc23)c1F [P-2165, Propane-1-sulfonic acid {2,4-difluoro-3-[5-(4-methanesulfonylamino-phenyl)-1H-pyrrolo[2,3-b]pyridine-3-carbonyl]-phenyl}-amide] | < 0.01 µM |
| CCCc1ccc(-c2cnc3[nH]cc(C(=O)c4c(F)ccc(NS(=O)(=O)CCC)c4F)c3c2)cn1 [P-2224, Propane-1-sulfonic acid {2,4-difluoro-3-[5-(6-propyl-pyridin-3-yl)-1H-pyrrolo[2,3-b]pyridine-3-carbonyl]-phenyl}-amide] | < 0.01 µM |
| CCCS(=O)(=O)Nc1cccc(C(=O)c2c[nH]c3ncc(-c4cnc(N(C)C)nc4)cc23)c1F [P-2408, Propane-1-sulfonic acid {3-[5-(2-dimethylamino-pyrimidin-5-yl)-1H-pyrrolo[2,3-b]pyridine-3-carbonyl]-2-fluoro-phenyl}-amide] | < 0.01 µM |
| CCCS(=O)(=O)Nc1ccc(F)c(C(=O)c2c[nH]c3ncc(-c4ccc(OCCN5CCCC5)nc4)cc23)c1F [P-2233, Propane-1-sulfonic acid (2,4-difluoro-3-{5-[6-(2-pyrrolidin-1-yl-ethoxy)-pyridin-3-yl]-1H-pyrrolo[2,3-b]pyridine-3-carbonyl}-phenyl)-amide] | < 0.01 µM |
| CCCS(=O)(=O)Nc1ccc(F)c(C(=O)c2c[nH]c3ncc(-c4ccc(OCCCN5CCCC5)nc4)cc23)c1F [P-2235, Propane-1-sulfonic acid (2,4-difluoro-3-{5-[6-(3-pyrrolidin-1-yl-propoxy)-pyridin-3-yl]-1H-pyrrolo[2,3-b]pyridine-3-carbonyl}-phenyl)-amide] | < 0.01 µM |

Results, then the compound that gave them:

| IC50 | SMILES |
| --- | --- |
| < 0.01 µM | O=C(c1c(F)ccc(NS(=O)(=O)c2cccc(F)c2)c1F)c1c[nH]c2nccc(Cl)c12 [P-2019, N-[3-(4-Chloro-1H-pyrrolo[2,3-b]pyridine-3-carbonyl)-2,4-difluoro-phenyl]-3-fluoro-benzenesulfonamide] |
| < 0.01 µM | N#Cc1ccnc2[nH]cc(C(=O)c3c(F)ccc(NS(=O)(=O)c4ccccc4F)c3F)c12 [P-2020, N-[3-(4-Cyano-1H-pyrrolo[2,3-b]pyridine-3-carbonyl)-2,4-difluoro-phenyl]-2-fluoro-benzenesulfonamide] |
| < 0.01 µM | O=C(c1c(F)ccc(NS(=O)(=O)c2cc(F)ccc2F)c1F)c1c[nH]c2nccc(Cl)c12 [P-2018, N-[3-(4-Chloro-1H-pyrrolo[2,3-b]pyridine-3-carbonyl)-2,4-difluoro-phenyl]-2,5-difluoro-benzenesulfonamide] |
| < 0.1 µM | COc1ccnc2[nH]cc(C(=O)c3c(F)ccc(NS(=O)(=O)c4cc(F)ccc4F)c3F)c12 [P-2022, N-[2,4-Difluoro-3-(4-methoxy-1H-pyrrolo[2,3-b]pyridine-3-carbonyl)-phenyl]-2,5-difluoro-benzenesulfonamide] |
| < 0.01 µM | COc1cnc2[nH]cc(C(=O)c3c(F)ccc(NS(=O)(=O)c4ccccc4F)c3F)c2c1 [P-2009, N-[2,4-Difluoro-3-(5-methoxy-1H-pyrrolo[2,3-b]pyridine-3-carbonyl)-phenyl]-2-fluoro-benzenesulfonamide] |
| < 0.01 µM | Cc1cnc2[nH]cc(C(=O)c3c(F)ccc(NS(=O)(=O)c4ccccc4F)c3F)c2c1 [P-2014, N-[2,4-Difluoro-3-(5-methyl-1H-pyrrolo[2,3-b]pyridine-3-carbonyl)-phenyl]-2-fluoro-benzenesulfonamide] |
| < 0.01 µM | N#Cc1ccnc2[nH]cc(C(=O)c3c(F)ccc(NS(=O)(=O)c4cc(F)ccc4F)c3F)c12 [P-2036, N-[3-(4-Cyano-1H-pyrrolo[2,3-b]pyridine-3-carbonyl)-2,4-difluoro-phenyl]-2,5-difluoro-benzenesulfonamide] |
| < 0.01 µM | Cc1cnc2[nH]cc(C(=O)c3c(F)ccc(NS(=O)(=O)c4cccc(F)c4)c3F)c2c1 [P-2016, N-[2,4-Difluoro-3-(5-methyl-1H-pyrrolo[2,3-b]pyridine-3-carbonyl)-phenyl]-3-fluoro-benzenesulfonamide] |
| < 0.01 µM | O=C(c1c(F)ccc(NS(=O)(=O)c2cc(F)ccc2F)c1F)c1c[nH]c2ncc(Cl)cc12 [P-2002, N-[3-(5-Chloro-1H-pyrrolo[2,3-b]pyridine-3-carbonyl)-2,4-difluoro-phenyl]-2,5-difluoro-benzenesulfonamide] |
| < 0.01 µM | N#Cc1ccnc2[nH]cc(C(=O)c3c(F)ccc(NS(=O)(=O)c4cccc(F)c4)c3F)c12 [P-2039, N-[3-(4-Cyano-1H-pyrrolo[2,3-b]pyridine-3-carbonyl)-2,4-difluoro-phenyl]-3-fluoro-benzenesulfonamide] |
| < 0.01 µM | COc1cnc2[nH]cc(C(=O)c3c(F)ccc(NS(=O)(=O)c4cc(F)ccc4F)c3F)c2c1 [P-2010, N-[2,4-Difluoro-3-(5-methoxy-1H-pyrrolo[2,3-b]pyridine-3-carbonyl)-phenyl]-2,5-difluoro-benzenesulfonamide] |
| < 0.01 µM | O=C(c1c(F)ccc(NS(=O)(=O)c2ccccc2F)c1F)c1c[nH]c2nccc(Cl)c12 [P-2017, N-[3-(4-Chloro-1H-pyrrolo[2,3-b]pyridine-3-carbonyl)-2,4-difluoro-phenyl]-2-fluoro-benzenesulfonamide] |
